Reference: PubChem BioAssay (NCI)
Values joined by “and” are separate entries in the source; they are usually repeats but may differ in a detail not shown here. Equal values may be shown once.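 Dose response: 5 concentrations. Exposure: 48 h. Format: 96-well plates. Endpoint: linear interpolation; highest concentration if not reached. GI50 is the concentration that inhibits growth by half. At the TGI there is no net growth.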

Assays:
Experiment in all cases: NCI tumour cell line growth inhibition, 48 h
[1] = tested on: 786-0 renal
[2] = tested on: A549 NSCLC
[3] = tested on: COLO 205 colon
[4] = tested on: HL-60(TB) leukemia
[5] = tested on: IGROV1 ovarian
[6] = tested on: KM12 colon
[7] = tested on: OVCAR-4 ovarian
[8] = tested on: SK-MEL-5 melanoma
[9] = tested on: SW-620 colon
[10] = tested on: MCF7 breast

In the case of `COC(=O)/C(C)=C/[N+](=O)[O-]`, the TGI [1] is reported as 32.3 µM, the TGI [2] is reported as 44.1 µM and the TGI [3] is reported as 16.6 µM. For the same compound, the TGI [4] was 40.1 µM, the TGI [5] was 44.1 µM and the TGI [6] was 32.9 µM. For the same compound, the TGI [7] was 33.5 µM, the TGI [8] was 47.3 µM and the TGI [9] was 26.8 µM.

For `COc1ccc(C2c3cc(OC)c(OC)cc3C(Cc3ccc([N+](=O)[O-])cc3)C2c2ccc([N+](=O)[O-])cc2)cc1OC` (stereo unspecified), the TGI [1] was > 100 µM, the TGI [2] was > 100 µM and the TGI [3] was > 100 µM. The TGI [4] was > 100 µM, the TGI [5] was > 100 µM and the TGI [6] was > 100 µM. The TGI [7] was > 100 µM, the TGI [8] was > 100 µM and the TGI [9] was > 100 µM.

In the case of `COC(=O)/C(C=O)=C/Sc1ccccc1`, the TGI [1] is reported as 30.2 µM, the TGI [2] is reported as > 100 µM and the TGI [3] is reported as 42.9 µM. For the same compound, the TGI [4] was > 100 µM, the TGI [5] was 28.8 µM and the TGI [6] was > 100 µM. The TGI [7] was > 100 µM, the TGI [8] was 85.2 µM and the TGI [9] was > 100 µM.

Compound `CC(=O)/C=C/c1ccc(C#Cc2ccccc2)s1` has a GI50 [1] of 12.5 µM, a TGI [1] of 25 µM and a GI50 [2] of 15.1 µM. The TGI [2] was 28.5 µM, the GI50 [3] was 16.9 µM and the TGI [3] was 31 µM. It also gave a GI50 [5] of 18.3 µM, a TGI [5] of 32.2 µM and a GI50 [6] of 6.1 µM. It also gave a TGI [6] of 36.7 µM, a GI50 [10] of 7.6 µM and a TGI [10] of 65 µM. It also gave a GI50 [7] of 13.1 µM, a TGI [7] of 28.6 µM and a GI50 [8] of 11.1 µM. For the same compound, the TGI [8] was 23.1 µM, the GI50 [9] was 19.4 µM and the TGI [9] was 38.1 µM.

`C1C[OH+]CCNCC[OH+]CC[OH+]CCN1.[Cl-].[Pt+4]` was tested, and the GI50 [1] was > 100 µM, the TGI [1] was > 100 µM and the GI50 [2] was > 100 µM. For the same compound, the TGI [2] was > 100 µM, the GI50 [3] was > 100 µM and the TGI [3] was > 100 µM. For the same compound, the GI50 [4] was > 100 µM, the TGI [4] was > 100 µM and the GI50 [5] was > 100 µM. For the same compound, the TGI [5] was > 100 µM, the GI50 [6] was > 100 µM and the TGI [6] was > 100 µM. The GI50 [7] was > 100 µM, the TGI [7] was > 100 µM and the GI50 [8] was > 100 µM. The TGI [8] was > 100 µM, the GI50 [9] was > 100 µM and the TGI [9] was > 100 µM.

`CC(C)OC(=O)NNc1cc(Cl)ccc1Cl` was tested, and the TGI [1] was > 100 µM, the TGI [2] was > 100 µM and the TGI [3] was > 100 µM. For the same compound, the TGI [4] was > 100 µM, the TGI [5] was > 100 µM and the TGI [6] was > 100 µM. The TGI [10] was > 100 µM, the TGI [8] was > 100 µM and the TGI [9] was > 100 µM.

In the case of `C[C@]12CC[C@@H]3c4ccc(O)cc4CC[C@H]3[C@@H]1CC[C@@H]2NS(=O)(=O)c1cccc(F)c1`, the GI50 [1] is reported as 3.38 µM, the TGI [1] is reported as 11.3 µM and the GI50 [2] is reported as 3.13 µM. It also gave a TGI [2] of 12.6 µM, a GI50 [3] of 1.85 µM and a TGI [3] of 3.61 µM. For the same compound, the GI50 [5] was 5.42 µM, the TGI [5] was 21.8 µM and the GI50 [6] was 2.34 µM. It also gave a TGI [6] of 6.31 µM, a GI50 [10] of 3.49 µM and a TGI [10] of 11 µM. The GI50 [7] was 2.72 µM, the TGI [7] was 14.4 µM and the GI50 [8] was 1.66 µM. The TGI [8] was 3.15 µM, the GI50 [9] was 4.36 µM and the TGI [9] was 16.8 µM.

`N.N.N.N.[Cl-].[Co+3].[N-]=[N+]=[N-].[N-]=[N+]=[N-]` was tested, and the GI50 [1] was > 100 µM, the TGI [1] was > 100 µM and the GI50 [2] was > 100 µM. For the same compound, the TGI [2] was > 100 µM, the GI50 [3] was > 100 µM and the TGI [3] was > 100 µM. For the same compound, the GI50 [4] was 74.3 µM, the TGI [4] was > 100 µM and the GI50 [5] was > 100 µM. For the same compound, the TGI [5] was > 100 µM, the GI50 [6] was > 100 µM and the TGI [6] was > 100 µM. The GI50 [7] was > 100 µM, the TGI [7] was > 100 µM and the GI50 [8] was > 100 µM. For the same compound, the TGI [8] was > 100 µM, the GI50 [9] was > 100 µM and the TGI [9] was > 100 µM.

`C=C1C(=O)O[C@H]2/C=C(/C)C3=CC(=O)[C@@](C)(C[C@@H](OC(=O)/C(C)=C\C)C12)O3` (stereo partly specified) showed a TGI [1] of 2.22 µM, a TGI [2] of 17.8 µM and a TGI [5] of 4.97 µM. For the same compound, the TGI [6] was 9.5 µM, the TGI [7] was > 26.5 µM and the TGI [8] was > 35.3 µM.

`CC12CCCCC1(C)C2Sc1ccccc1` (stereo unspecified) was tested, and the TGI [1] was > 100 µM, the TGI [2] was > 100 µM and the TGI [3] was > 100 µM. For the same compound, the TGI [4] was 36.9 µM, the TGI [5] was > 100 µM and the TGI [6] was > 100 µM. The TGI [7] was > 100 µM, the TGI [8] was > 63.5 µM and the TGI [9] was > 100 µM.

For `C[C@@]12CCCc3coc(c31)C(=O)c1cc3c(cc12)C(=O)C=CC3=O`, the GI50 [1] was > 1 µM, the TGI [1] was > 1 µM and 30.7 µM and the GI50 [2] was > 1 µM. The TGI [2] was > 1 µM and 51.4 µM, the TGI [3] was > 1 µM and the GI50 [4] was > 1 µM. The TGI [4] was > 100 µM, the GI50 [5] was > 1 µM and the TGI [5] was > 1 µM and 37.1 µM. The GI50 [6] was > 1 µM, the TGI [6] was > 1 µM and 41.8 µM and the GI50 [7] was > 1 µM. The TGI [7] was > 1 µM and 28.9 µM, the GI50 [8] was > 1 µM and the TGI [8] was > 1 µM and 30.9 µM. The GI50 [9] was > 1 µM and the TGI [9] was > 1 µM and 20.1 µM.

In the case of `Oc1cn(-c2ccc(Cl)cc2)nc1-c1n[nH]c(=S)n1C1CCCCC1`, the GI50 [1] is reported as 1.82 µM, the TGI [1] is reported as > 100 µM and the GI50 [2] is reported as 2.03 µM. The TGI [2] was > 48.8 µM, the GI50 [3] was 64.8 µM and the TGI [3] was > 100 µM. The GI50 [5] was 24.2 µM, the TGI [5] was > 100 µM and the GI50 [6] was 1.04 µM. The TGI [6] was 17.5 µM, the TGI [10] was > 100 µM and the GI50 [7] was 31.8 µM. The TGI [7] was > 100 µM, the GI50 [8] was 0.25 µM and the TGI [8] was 12.3 µM. For the same compound, the GI50 [9] was 0.475 µM and the TGI [9] was > 100 µM.

With `COc1cc(C2=C(c3cn(C)c4ccccc34)COC2=O)cc(OC)c1OC` the GI50 [1] was 0.317 µM, the TGI [1] was > 32.8 µM and the GI50 [2] was 0.1 µM. The TGI [2] was > 25.6 µM, the GI50 [3] was 0.0648 µM and the TGI [3] was 1.28 µM. It also gave a GI50 [4] of 0.0425 µM, a TGI [4] of 1.46 µM and a GI50 [5] of 0.0771 µM. The TGI [5] was 21.7 µM, the GI50 [10] was 0.0274 µM and the TGI [10] was > 19.8 µM. The GI50 [7] was 1.27 µM, the TGI [7] was > 52.6 µM and the GI50 [8] was 0.0773 µM. For the same compound, the TGI [8] was 1.4 µM, the GI50 [9] was 0.0444 µM and the TGI [9] was > 100 µM.

For `N=C(N)SCc1cccc(-c2nc3ccccc3c(=O)o2)c1`, the TGI [1] was > 100 µM, the TGI [2] was > 100 µM and the TGI [3] was > 100 µM. The TGI [5] was > 100 µM, the TGI [6] was > 100 µM and the TGI [10] was > 100 µM. The TGI [7] was > 100 µM, the TGI [8] was > 100 µM and the TGI [9] was > 100 µM.

With `CC1(C)O/C(=C\c2ccccc2)C(=O)/C(=C/c2ccccc2)O1` the TGI [1] was > 100 µM, the TGI [2] was > 100 µM and the TGI [3] was > 100 µM. For the same compound, the TGI [4] was 29.4 µM, the TGI [5] was > 100 µM and the TGI [6] was > 100 µM. The TGI [7] was > 100 µM, the TGI [8] was 27.9 µM and the TGI [9] was > 100 µM.

With `Nc1ccn(C2(CO)C=C(CO)C(O)C2O)c(=O)n1` (stereo unspecified) the TGI [1] was > 25.8 µM, the TGI [2] was > 25.8 µM and the TGI [3] was > 25.8 µM. For the same compound, the TGI [4] was > 25.8 µM, the TGI [5] was > 25.8 µM and the TGI [6] was > 25.8 µM. The TGI [7] was > 25.8 µM, the TGI [8] was > 25.8 µM and the TGI [9] was > 25.8 µM.

In the case of `CCOC(=N)CC(=O)Nc1cccc(C)c1C`, the TGI [1] is reported as > 100 µM, the TGI [2] is reported as > 100 µM and the TGI [3] is reported as > 100 µM. For the same compound, the TGI [4] was > 100 µM, the TGI [5] was > 100 µM and the TGI [6] was > 100 µM. For the same compound, the TGI [7] was > 100 µM, the TGI [8] was > 100 µM and the TGI [9] was > 100 µM.
